Results as given in publication PMC10581251, “Antisense inhibition of RNA polymerase α subunit of Clostridioides difficile” (Microbiology Spectrum, 2023).
Converted amounts (≈) assume the structure as drawn. Like-named read-outs stand apart in the source and are kept apart here.

Key:
[1] = system: Lactobacillus rhamnosus ATCC 53103; experiment: MIC gut microflora, Lactobacillus rhamnosus; type: cell-based; conditions: broth microdilution, MRS broth, 48 hours, read-out: MIC
Protocol: (§1) The susceptibility of gut microflora strains to the rpoA-TAT conjugate was determined using the broth microdilution assay, as described above. Briefly, bacterial suspensions of Bifidobacterium sp. and Bacteroides sp., in supplemented BHIS broth, and Lactobacilli strains, in MRS broth, were added to ultra-low adhesion 96-well plates and serially diluted. The MIC was recorded after 48 hours.

C. difficile 630 [2] = experiment: Killing kinetics (time-kill assay); type: cell-based, Clostridioides difficile; conditions: 1× MIC, inoculum ~5 × 10^5 CFU/mL, triplicate
Protocol: The killing kinetics of the PNA construct was determined as described previously ([45] [–] [47]). Briefly, an overnight culture of C. difficile 630 was diluted 1:50 into fresh Mueller Hilton II broth (~10^5 CFU/mL) and added in triplicate to low adhesion microcentrifuge tubes containing either sterile water, the rpoA-TAT construct (1× MIC), or the positive controls vancomycin or fidaxomicin (1× MIC). The number of viable bacteria in each treatment group was determined by taking aliquots at 0, 4, 8, 12, 16, and 24 hours; these aliquots were then serially diluted and plated on BHIS agar plates. The plates were incubated anaerobically, and the number of colony-forming units for each treatment group was recorded the following day. The experiment was repeated twice.

C. difficile ATCC 630 [3] = experiment: microbe, parasite or virus in culture
Protocol: (§2) The susceptibility of C. difficile isolates to the CPP-PNA conjugates or to the CPP alone was determined in vitro as described before with slight modifications ([43] [–] [45]). Briefly, the CPP-PNA conjugates, the CPP alone, and the antibiotics vancomycin and fidaxomicin were added in triplicate to the first row of ultra-low adhesion 96-well plates (Corning Inc., Corning, NY). A suspension of C. difficile equivalent to 0.5 McFarland solution was added to Mueller-Hilton II broth, which was then added to the ultra-low adhesion plate and then serially diluted. The plates were incubated anaerobically for 48 hours at 37°C. The minimum inhibitory concentration was defined as the lowest concentration of the CPP-PNA conjugate that could inhibit bacterial growth when observed visually.
(§3) The MIC and MBC experiments were repeated twice.

C. difficile ATCC 43255 = experiment: MIC/MBC broth microdilution, C. difficile ATCC 43255; type: cell-based, Clostridioides difficile; conditions: for MIC: broth microdilution, anaerobic 48 hours 37°C, visual, read-out: MIC; for MBC: plated on BHIS agar, read-out: MBC
Protocol: as §2, §3

[4] = system: C. difficile ATCC BAA 1870; experiment: Effect of pH on MIC/MBC, C. difficile ATCC BAA 1870; type: cell-based, Clostridioides difficile; conditions: for MBC: read-out: MBC; for MIC: read-out: MIC
Protocol: as §2, §3
(§4) The susceptibility of C. difficile (ATCC 630 and ATCC BAA 1870) to the rpoA-TAT conjugate was evaluated over a pH range of 6 to 9 using the broth microdilution method ([43], [46] [–] [48]). The desired pH for susceptibility testing was attained by the addition of either 0.1 N HCL or 1 N NaOH to the media. The experiment was repeated twice.

C. difficile 1071 = experiment: MIC/MBC broth microdilution, C. difficile 1071; type: cell-based, Clostridioides difficile; conditions: for MIC: broth microdilution, anaerobic 48 hours 37°C, visual, read-out: MIC; for MBC: plated on BHIS agar, read-out: MBC
Protocol: as §2, §3

C. difficile 1079 = experiment: MIC/MBC broth microdilution, C. difficile 1079; type: cell-based, Clostridioides difficile; conditions: for MIC: broth microdilution, anaerobic 48 hours 37°C, visual, read-out: MIC; for MBC: plated on BHIS agar, read-out: MBC
Protocol: as §2, §3

C. difficile 1082 = experiment: MIC/MBC broth microdilution, C. difficile 1082; type: cell-based, Clostridioides difficile; conditions: for MIC: broth microdilution, anaerobic 48 hours 37°C, visual, read-out: MIC; for MBC: plated on BHIS agar, read-out: MBC
Protocol: as §2, §3

C. difficile 630 [5] = experiment: Effect of high bacterial inoculum on activity; type: cell-based, Clostridioides difficile; conditions: 8 hours; for Log reduction: vs no treatment
Protocol: The in vitro efficacy of the PNA constructs against a high inoculum size of C. difficile 630 was determined. Briefly, the PNA constructs and control antibiotics, at a concentration of 1× MIC, were added in triplicate to low adhesion microcentrifuge tubes (Corning Inc., Corning, NY). A high inoculum of C. difficile suspension equivalent to ~5 × 10^6 and ~5 × 10^7 cells was added to the tubes, which were incubated anaerobically at 37°C. The number of viable bacteria in each treatment group was determined by serial dilution and plating on BHIS agar plates at 8 hours and 24 hours post-incubation, respectively. The effect of a high inoculum on the activity of the PNA construct was repeated twice.

C. difficile ATCC 630 [6] = experiment: Effect of pH on MIC/MBC, C. difficile ATCC 630; type: cell-based, Clostridioides difficile; conditions: for MBC: read-out: MBC; for MIC: read-out: MIC
Protocol: as §2, §3, §4

[7] = system: Lactobacillus brevis ATCC 14869; experiment: MIC gut microflora, Lactobacillus brevis; type: cell-based; conditions: broth microdilution, MRS broth, 48 hours, read-out: MIC
Protocol: as §1

[8] = system: Bacteroides fragilis HM 714; experiment: MIC gut microflora, Bacteroides fragilis; type: cell-based; conditions: broth microdilution, supplemented BHIS broth, 48 hours, read-out: MIC
Protocol: as §1

[9] = system: Lactobacillus gasseri ATCC 19992; experiment: MIC gut microflora, Lactobacillus gasseri; type: cell-based; conditions: broth microdilution, MRS broth, 48 hours, read-out: MIC
Protocol: as §1

[10] = system: Bifidobacterium longum subsp. longum HM 846; experiment: MIC gut microflora, Bifidobacterium longum; type: cell-based
Protocol: as §1

[11] = system: toxin A and toxin B production by C. difficile 630; experiment: Toxin production inhibition (ELISA); type: cell-based, Clostridioides difficile; conditions: 8 hours, ELISA of supernatant, triplicate
Protocol: After the incubation period, the bacterial count in each treatment group was determined by serial dilution and plating. Toxin content in the supernatant of each treatment group was determined using an enzyme-linked immunosorbent assay (ELISA, tgcBIOMICS) kit, as per the manufacturer’s protocol.

[12] = Clostridioides difficile, ATCC43255
[13] = Clostridioides difficile, BAA1870, pH 6
[14] = Clostridioides difficile, BAA1870, pH 7
[15] = Clostridioides difficile, BAA1870, pH 8
[16] = Clostridioides difficile, ATCC630, pH 6
[17] = Clostridioides difficile, ATCC630, pH 7
[18] = Clostridioides difficile, ATCC630, pH 8
[19] = broth microdilution, supplemented BHIS broth, 48 hours

CCc1c(Cl)c(O)c(Cl)c(O)c1C(=O)O[C@H]1[C@H](O)[C@H](OC)[C@H](OC/C2=C\C=C\C[C@H](O)/C(C)=C/[C@H](CC)[C@@H](O[C@@H]3OC(C)(C)[C@@H](OC(=O)C(C)C)[C@H](O)[C@@H]3O)/C(C)=C/C(C)=C/C[C@@H]([C@@H](C)O)OC2=O)O[C@@H]1C [Fidaxomicin, fidaxomicin]
MIC ([1]; Lacticaseibacillus rhamnosus, ATCC53103): > 2 µM | time to eradication of bacteria (below the limit of detection, 250 CFU/mL) (C. difficile 630 [2]): ≤ 12 h | MBC (C. difficile ATCC 630 [3]; Clostridioides difficile, ATCC630): 0.5 µM (≈ 0.529 µg/mL) | MIC (C. difficile ATCC 630 [3]; Clostridioides difficile, ATCC630, 48 h): 0.5 µM (≈ 0.529 µg/mL) | MIC (C. difficile ATCC 43255; [12]): 0.5 µM (≈ 0.529 µg/mL) | MBC (C. difficile ATCC 43255; [12]): 0.5 µM (≈ 0.529 µg/mL) | MBC [4, 13]: 2 µM (≈ 2.12 µg/mL) | MIC [4, 13]: 1 µM (≈ 1.06 µg/mL) | MBC [4, 14]: 2 µM (≈ 2.12 µg/mL) | MIC [4, 14]: 1 µM (≈ 1.06 µg/mL) | MBC [4, 15]: 4 µM (≈ 4.23 µg/mL) | MIC [4, 15]: 1 µM (≈ 1.06 µg/mL) | MIC (C. difficile 1071; Clostridioides difficile, 1071): 1 µM (≈ 1.06 µg/mL) | MBC (C. difficile 1071; Clostridioides difficile, 1071): 1 µM (≈ 1.06 µg/mL) | MIC (C. difficile 1079; Clostridioides difficile, 1079): 2 µM (≈ 2.12 µg/mL) | MBC (C. difficile 1079; Clostridioides difficile, 1079): 2 µM (≈ 2.12 µg/mL) | MIC (C. difficile 1082; Clostridioides difficile, 1082): 2 µM (≈ 2.12 µg/mL) | MBC (C. difficile 1082; Clostridioides difficile, 1082): 2 µM (≈ 2.12 µg/mL) | Log CFU (C. difficile 630 [5]; inoculum 5 × 10^6, 1× MIC): 0 | Log reduction (C. difficile 630 [5]; inoculum 5 × 10^6, 1× MIC): 6.37 | Log CFU (C. difficile 630 [5]; inoculum 5 × 10^7, 1× MIC): 0 | Log reduction (C. difficile 630 [5]; inoculum 5 × 10^7, 1× MIC): 7.77 | MBC (C. difficile ATCC 630 [6]; [16]): 1 µM (≈ 1.06 µg/mL) | MIC (C. difficile ATCC 630 [6]; [16]): 0.5 µM (≈ 0.529 µg/mL) | MBC (C. difficile ATCC 630 [6]; [17]): 1 µM (≈ 1.06 µg/mL) | MIC (C. difficile ATCC 630 [6]; [17]): 0.5 µM (≈ 0.529 µg/mL) | MBC (C. difficile ATCC 630 [6]; [18]): 4 µM (≈ 4.23 µg/mL) | MIC (C. difficile ATCC 630 [6]; [18]): 1 µM (≈ 1.06 µg/mL) | MIC ([7]; Levilactobacillus brevis, ATCC14869): > 2 µM | MIC ([8]; Bacteroides fragilis, HM714): > 2 µM | MIC ([9]; Lactobacillus gasseri, ATCC19992): > 2 µM | MIC ([10]; Bifidobacterium longum, 48 h): 0.125 µM (≈ 0.132 µg/mL) | MIC [10, 19]: 0.125 µM (≈ 0.132 µg/mL) | reduction of C. difficile toxin production ([11]; 0.125× MIC): 45.7% | reduction of C. difficile toxin production ([11]; 0.25× MIC): 50.6% | reduction of C. difficile toxin production ([11]; 0.5× MIC): 54%

GRKKKRRQRRRYK-O-CATGGACAAAAC-NH2 [rpoA-TAT, PNA oligomer antisense to C. difficile rpoA covalently conjugated to the TAT cell penetrating peptide]
MIC [1]: >32 µM | time to eradication of bacteria (below the limit of detection, 250 CFU/mL) (C. difficile 630 [2]): ≤ 8 h | MBC (C. difficile ATCC 630 [3]; aliquots of wells without growth plated on BHIS agar, repeated twice): 8 µM | MIC (C. difficile ATCC 630 [3]; broth microdilution, Mueller-Hilton II broth, anaerobic 48 hours 37°C, visual, triplicate, repeated twice): 8 µM | MIC (C. difficile ATCC 43255): 8 µM | MBC (C. difficile ATCC 43255): 8 µM | MBC ([4]; pH 6): 8 µM | MIC ([4]; pH 6): 8 µM | MBC ([4]; pH 7): 8 µM | MIC ([4]; pH 7): 8 µM | MIC (C. difficile 1071): 8 µM | MBC (C. difficile 1071): 8 µM | MIC (C. difficile 1079): 8 µM | MBC (C. difficile 1079): 8 µM | MIC (C. difficile 1082): 4 µM | MBC (C. difficile 1082): 4 µM | Log CFU (C. difficile 630 [5]; inoculum 5 × 10^6, 1× MIC): 0 | Log reduction (C. difficile 630 [5]; inoculum 5 × 10^6, 1× MIC): 6.37 | Log CFU (C. difficile 630 [5]; inoculum 5 × 10^7, 1× MIC): 0 | Log reduction (C. difficile 630 [5]; inoculum 5 × 10^7, 1× MIC): 7.77 | MBC (C. difficile ATCC 630 [6]; pH 6): 8 µM | MIC (C. difficile ATCC 630 [6]; pH 6): 8 µM | MBC (C. difficile ATCC 630 [6]; pH 7): 8 µM | MIC (C. difficile ATCC 630 [6]; pH 7): 8 µM | MBC (C. difficile ATCC 630 [6]; pH 8): 8 µM | MIC (C. difficile ATCC 630 [6]; pH 8): 8 µM | MIC [7]: >32 µM | MIC [8]: >32 µM | MIC [9]: >32 µM | MIC [10, 19]: >32 µM | reduction of C. difficile toxin production ([11]; 0.125× MIC): 34.9% | reduction of C. difficile toxin production ([11]; 0.25× MIC): 54.3% | reduction of C. difficile toxin production ([11]; 0.5× MIC): 55.2%
